# Results taken from patent publication US12568967B2, “Compositions comprising pyridine carboxylate herbicides with synthetic auxin herbicides or auxin transport inhibitors” (priority 2018, dated 2026).
# Where “and” joins values, the source holds several entries; their conditions need not be identical. Equal values may be shown once.
# Experiments:
# [1] = test system: Polygonum convolvulus (wild buckwheat, POLCO); assay: Greenhouse postemergence trial POLCO; format: in vivo
# [2] = test system: Sinapis arvensis (wild mustard, SINAR); assay: Greenhouse postemergence trial SINAR; format: in vivo
# [3] = test system: Salsola kali (Russian thistle, SASKR); assay: Greenhouse postemergence trial SASKR; format: in vivo;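 also: greenhouse plants sprayed at second or third true leaf stage, injury rated by eye after 20-22 d against solvent-blank controls, 0 meaning no injury, 100 complete kill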
# [4] = test system: Amaranthus retroflexus (pigweed, AMARE); assay: Greenhouse postemergence trial AMARE; format: in vivo;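 also: Greenhouse-grown plants sprayed at second to third true leaf stage, injury rated by eye after 20-22 d versus solvent-blank sprayed controls, 0 = no injury, 100 = complete kill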
# Experimental: (§1) The plants were grown for 7-36 days (d) in a greenhouse with an approximate 14-hour (h) photo-period which was maintained at about 23° C. during the day and 22° C. during the night. Nutrients and water were added on a regular basis and supplemental lighting was provided with overhead metal halide 1000-Watt lamps as necessary. The plants were employed for testing when they reached the second or third true leaf stage.
# (§2) The emulsifiable concentrates also included a safener, cloquintocet-mexyl, at 120 grams active ingredient per liter (g ai/L), unless otherwise noted below.
# (§3) Control plants were sprayed in the same manner with the solvent blank. All pyridine carboxylate herbicide (component a) application rates are given as “g ae/ha” and all synthetic auxin herbicide or auxin transport inhibitor (component b) application rates are given as “g ai/ha.”
# (§4) The treated plants and control plants were placed in a greenhouse as described above and watered by sub-irrigation to prevent wash-off of the test compounds. After 20-22 d, the condition of the test plants as compared with that of the control plants was determined visually and scored on a scale of 0 to 100 percent where 0 corresponds to no injury and 100 corresponds to complete kill.
# [5] = test system: Veronica hederifolia (ivyleaf speedwell, VERHE); assay: Greenhouse postemergence trial VERHE; format: in vivo; settings: VERHE; for % visual injury, Obs: applied alone
# Experimental: (§5) Seeds of the desired test plant species were planted in a 90:10% v/v (volume/volume) mixture of PRO-MIX® BX (Premier Tech Horticulture, Quakertown, PA, USA) and PROFILE® GREENS GRADE™ (Profile Products LLC, Buffalo Grove, IL, USA) planting mixture, which typically has a pH of 5.2 to 6.2 and an organic matter content of at least 50 percent, in plastic pots with a surface area of 103.2 square centimeters (cm^2). […] The plants were grown for 7-36 days (d) in a greenhouse with an approximate 14-hour (h) photo-period which was maintained at about 23° C. during the day and 22° C. during the night. Nutrients and water were added on a regular basis and supplemental lighting was provided with overhead metal halide 1000-Watt lamps as necessary. The plants were employed for testing when they reached the second or third true leaf stage.
# (§6) Emulsifiable concentrates of each of each pyridine carboxylate herbicide (Compound A or Compound B) were prepared at 100 grams acid equivalent per liter (g ae/L). The emulsifiable concentrates also included a safener, cloquintocet-mexyl, at 120 grams active ingredient per liter (g ai/L), unless otherwise noted below. An aliquot of each emulsifiable concentrate was placed in a 25 mL glass vial and diluted with an aqueous mixture of 1.25% (v/v) ACTIROB® B esterified rapeseed oil (Bayer Crop Science, Research Triangle Park, NC, USA) or MSO® Concentrate with LECI-TECH® methylated soybean oil (Loveland Products, Loveland, CO, USA) to obtain concentrated stock solutions at the highest application rate for each herbicide, based upon a 12 milliliter (mL) application volume at a rate of 187 liters per hectare (L/ha). The concentrated stock solutions were further diluted with an aqueous mixture of 1.25% v/v ACTIROB® B or MSO® Concentrate with LECI-TECH® to obtain stock solutions at reduced application rates for each herbicide. Spray solutions of the herbicide combinations (Compound A or Compound B plus synthetic auxin herbicide or auxin transport inhibitor) were prepared by adding weighed amounts or aliquots of the synthetic auxin herbicide or auxin transport inhibitor to the stock solutions of Compound A or Compound B to form 12-mL spray solutions in two-way combinations.
# (§7) The spray solutions were applied to the plant material with an overhead Mandel track sprayer equipped with 8002E nozzles calibrated to deliver 187 L/ha over an application area of 0.503 square meters (m^2) at a spray height of 18 inches (43 centimeters (cm)) above the average plant canopy. Control plants were sprayed in the same manner with the solvent blank. All pyridine carboxylate herbicide (component a) application rates are given as “g ae/ha” and all synthetic auxin herbicide or auxin transport inhibitor (component b) application rates are given as “g ai/ha.”
# as §4
# [6] = test system: Veronica persica (bird's-eye speedwell, VERPE); assay: Greenhouse postemergence trial VERPE; format: in vivo; settings: for % visual injury Obs / visual injury, Obs / % visual injury, Obs: VERPE; for % visual injury, Obs: applied alone
# [7] = test system: Capsella bursa-pastoris (shepherd's purse, CAPBP); assay: Greenhouse postemergence trial CAPBP; format: in vivo; settings: CAPBP; for % visual injury, Obs: applied alone
# [8] = test system: Stellaria media (chickweed, STEME); assay: Greenhouse postemergence trial STEME; format: in vivo; settings: for % visual injury Obs: alone
# [9] = test system: Brassica napus (spring rape, BRSNN); assay: Greenhouse postemergence trial BRSNN; format: in vivo
# Experimental: as §1, §2, §3, §4
# [10] = test system: Glycine max (volunteer soybean, GLXMA); assay: Greenhouse postemergence trial GLXMA; format: in vivo; settings: Compound A 10 g/ha
# Experimental: as §5, §6, §7, §4
# [11] = test system: Helianthus annuus (common sunflower, HELAN); assay: Greenhouse postemergence trial HELAN; format: in vivo; settings: Compound A 10 g/ha
# Experimental: as §5, §6, §7, §4
# [12] = test system: Setaria faberi (giant foxtail, SETFA); assay: Greenhouse postemergence trial SETFA; format: in vivo; settings: Compound A 10 g/ha
# Experimental: as §5, §6, §7, §4
# [13] = test system: Oryza sativa (common rice, ORYSA); assay: Greenhouse postemergence trial ORYSA; format: in vivo; settings: Compound A 10 g/ha
# Experimental: as §5
# Emulsifiable concentrates of each of each pyridine carboxylate herbicide (Compound A or Compound B) were prepared at 100 grams acid equivalent per liter (g ae/L). […]
# as §4
# [14] = test system: Viola tricolor (wild pansy, VIOTR); assay: Greenhouse postemergence trial VIOTR;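 also: greenhouse plants sprayed at second to third true leaf stage, injury rated visually after 20-22 d against solvent-blank sprayed controls, 0 meaning no injury and 100 complete kill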
# [15] = Compound A 10 g/ha, without safener
# [16] = Viola tricolor, post-emergence, read-out: % visual injury Obs
smiles,measurement,setting,value
"N#CCOC(=O)c1nc(-c2ccc3cc[nH]c3c2F)c(F)c(N)c1Cl [Compound A, cyanomethyl 4-amino-3-chloro-5-fluoro-6-(7-fluoro-1H-indol-6-yl)pyridine-2-carboxylate]",POLCO Obs (% visual injury),[1]; Compound A 10 g/ha,91% and 70%
same,POLCO % visual injury Obs,[1]; Compound A 10 g/ha (Table 42),91%
same,POLCO % visual injury Obs,[1]; Compound A 10 g/ha (Table 43),91%
same,POLCO % visual injury Obs,[1]; Compound A 10 g/ha (Table 44),91%
same,POLCO Obs (% visual injury),[1]; [15],78%
same,pest or weed control at […],"[1]; Fallopia convolvulus, post-emergence, POLCO, Compound A 7.5 g/ha, read-out: % visual injury Obs",85%
same,pest or weed control at 10 g/ha,"[1]; Fallopia convolvulus, post-emergence, POLCO, Compound A 10 g/ha, read-out: % visual injury Obs",90%
same,pest or weed control at 15 g/ha,"[1]; Fallopia convolvulus, post-emergence, POLCO, Compound A 15 g/ha, read-out: % visual injury Obs",95%
same,% visual injury Obs,"[1]; POLCO, Compound A 10 g/ha",90%
same,"% visual injury, Obs","[1]; POLCO, Compound A 10 g/ha",91% and 70% and 78%
same,"visual injury, Obs","[1]; POLCO, Compound A 10 g/ha alone",90%
same,"visual injury, Obs","[1]; POLCO, Compound A 15 g/ha alone",95%
same,% visual injury (Obs),"[1]; POLCO, alone 10 g/ha",86% and 96% and 70%
same,% visual injury Obs,"[1]; POLCO, alone 10 g/ha",90%
same,% visual injury Obs,"[1]; POLCO, alone, 15 g/ha",95%
same,"% visual injury, Obs","[1]; POLCO, applied alone, 10 g/ha",90% and 43%
same,"% visual injury, Obs","[1]; POLCO, applied alone, 15 g/ha",95%
same,SINAR Obs (% visual injury),[2]; Compound A 10 g/ha,100% and 90%
same,SINAR % visual injury Obs,[2]; Compound A 10 g/ha (Table 42),100%
same,SINAR % visual injury Obs,[2]; Compound A 10 g/ha (Table 43),100%
same,SINAR % visual injury Obs,[2]; Compound A 10 g/ha (Table 44),100%
same,pest or weed control at […],"[2]; Mutarda arvensis, post-emergence, SINAR, Compound A 7.5 g/ha, read-out: % visual injury Obs",90%
same,pest or weed control at 10 g/ha,"[2]; Mutarda arvensis, post-emergence, SINAR, Compound A 10 g/ha, read-out: % visual injury Obs",90%
same,pest or weed control at 15 g/ha,"[2]; Mutarda arvensis, post-emergence, SINAR, Compound A 15 g/ha, read-out: % visual injury Obs",100%
same,% visual injury Obs,"[2]; SINAR, Compound A 10 g/ha",90%
same,"% visual injury, Obs","[2]; SINAR, Compound A 10 g/ha",100% and 88%
same,"visual injury, Obs","[2]; SINAR, Compound A 10 g/ha alone",90%
same,"visual injury, Obs","[2]; SINAR, Compound A 15 g/ha alone",100%
same,% visual injury (Obs),"[2]; SINAR, alone, 10 g/ha",90% and 88%
same,% visual injury Obs,"[2]; SINAR, alone, 10 g/ha",90%
same,% visual injury Obs,"[2]; SINAR, alone, 15 g/ha",100%
same,"% visual injury, Obs","[2]; SINAR, applied alone, 10 g/ha",90% and 88%
same,"% visual injury, Obs","[2]; SINAR, applied alone, 15 g/ha",100%
same,SASKR Obs (% visual injury),[3]; Compound A 10 g/ha,65% and 63%
same,SASKR % visual injury Obs,[3]; Compound A 10 g/ha (Table 42),65%
same,SASKR % visual injury Obs,[3]; Compound A 10 g/ha (Table 43),65%
same,SASKR % visual injury Obs,[3]; Compound A 10 g/ha (Table 44),65%
same,"% visual injury, Obs","[3]; SASKR, Compound A 10 g/ha",65%
same,"visual injury, Obs","[3]; SASKR, Compound A 10 g/ha alone",50%
same,"visual injury, Obs","[3]; SASKR, Compound A 15 g/ha alone",50%
same,% visual injury (Obs),"[3]; SASKR, alone, 10 g/ha",63%
same,% visual injury Obs,"[3]; SASKR, alone, 10 g/ha",50%
same,% visual injury Obs,"[3]; SASKR, alone, 15 g/ha",50%
same,"% visual injury, Obs","[3]; SASKR, applied alone, 10 g/ha",50% and 63%
same,"% visual injury, Obs","[3]; SASKR, applied alone, 15 g/ha",50%
same,pest or weed control at […],"[3]; Salsola kali, post-emergence, SASKR, Compound A 7.5 g/ha, read-out: % visual injury Obs",30%
same,pest or weed control at 10 g/ha,"[3]; Salsola kali, post-emergence, SASKR, Compound A 10 g/ha, read-out: % visual injury Obs",50%
same,pest or weed control at 15 g/ha,"[3]; Salsola kali, post-emergence, SASKR, Compound A 15 g/ha, read-out: % visual injury Obs",50%
same,"% visual injury, Obs","[4]; AMARE, Compound A 10 g/ha",100% and 90%
same,% visual injury (Obs),"[4]; AMARE, alone 10 g/ha",98% and 90%
same,"% visual injury, Obs","[4]; AMARE, applied alone, 10 g/ha",85%
same,AMARE Obs (% visual injury),[4]; Compound A 10 g/ha,100% and 98%
same,AMARE % visual injury Obs,[4]; Compound A 10 g/ha (Table 42),100%
same,AMARE % visual injury Obs,[4]; Compound A 10 g/ha (Table 43),100%
same,AMARE % visual injury Obs,[4]; Compound A 10 g/ha (Table 44),100%
same,% visual injury Obs,[5]; Compound A 10 g/ha,75%
same,"visual injury, Obs",[5]; Compound A 10 g/ha alone,75%
same,"visual injury, Obs",[5]; Compound A 15 g/ha alone,80%
same,% visual injury Obs,"[5]; alone, 10 g/ha",75%
same,% visual injury Obs,"[5]; alone, 15 g/ha",80%
same,"% visual injury, Obs",[5]; 10 g/ha,75%
same,"% visual injury, Obs",[5]; 15 g/ha,80%
same,pest or weed control at […],"[5]; Veronica hederifolia, post-emergence, Compound A 7.5 g/ha, read-out: % visual injury Obs",65%
same,pest or weed control at 10 g/ha,"[5]; Veronica hederifolia, post-emergence, Compound A 10 g/ha, read-out: % visual injury Obs",75%
same,pest or weed control at 15 g/ha,"[5]; Veronica hederifolia, post-emergence, Compound A 15 g/ha, read-out: % visual injury Obs",80%
same,% visual injury Obs,[6]; Compound A 10 g/ha,85%
same,"visual injury, Obs",[6]; Compound A 10 g/ha alone,85%
same,% visual injury Obs,[6]; Compound A 15 g/ha,95%
same,"visual injury, Obs",[6]; Compound A 15 g/ha alone,95%
same,% visual injury Obs,"[6]; alone, 10 g/ha",85%
same,% visual injury Obs,"[6]; alone, 15 g/ha",95%
same,"% visual injury, Obs",[6]; 10 g/ha,85%
same,"% visual injury, Obs",[6]; 15 g/ha,95%
same,pest or weed control at […],"[6]; Veronica persica, post-emergence, VERVE, Compound A 7.5 g/ha, read-out: % visual injury Obs",80%
same,pest or weed control at 10 g/ha,"[6]; Veronica persica, post-emergence, VERVE, Compound A 10 g/ha, read-out: % visual injury Obs",85%
same,pest or weed control at 15 g/ha,"[6]; Veronica persica, post-emergence, VERVE, Compound A 15 g/ha, read-out: % visual injury Obs",95%
same,"visual injury, Obs",[7]; Compound A 10 g/ha alone,50%
same,"visual injury, Obs",[7]; Compound A 15 g/ha alone,85%
same,% visual injury (Obs),[7]; alone 10 g/ha,78%
same,% visual injury Obs,[7]; alone 10 g/ha,50%
same,% visual injury Obs,"[7]; alone, 15 g/ha",85%
same,"% visual injury, Obs",[7]; 10 g/ha,50%
same,"% visual injury, Obs",[7]; 15 g/ha,85%
same,pest or weed control at […],"[7]; Capsella bursa-pastoris, post-emergence, Compound A 7.5 g/ha, read-out: % visual injury Obs",50%
same,pest or weed control at 10 g/ha,"[7]; Capsella bursa-pastoris, post-emergence, Compound A 10 g/ha, read-out: % visual injury Obs",50%
same,pest or weed control at 15 g/ha,"[7]; Capsella bursa-pastoris, post-emergence, Compound A 15 g/ha, read-out: % visual injury Obs",85%
same,STEME Obs (% visual injury),[8]; [15],88%
same,"% visual injury, Obs","[8]; STEME, Compound A 10 g/ha",88%
same,"visual injury, Obs","[8]; STEME, Compound A 10 g/ha alone",70%
same,"visual injury, Obs","[8]; STEME, Compound A 15 g/ha alone",100%
same,% visual injury Obs,"[8]; STEME, 10 g/ha",70%
same,% visual injury Obs,"[8]; STEME, 15 g/ha",100%
same,"% visual injury, Obs","[8]; STEME, applied alone, 10 g/ha",70%
same,"% visual injury, Obs","[8]; STEME, applied alone, 15 g/ha",100%
same,pest or weed control at […],"[8]; Stellaria media, post-emergence, STEME, Compound A 7.5 g/ha, read-out: % visual injury Obs",65%
same,pest or weed control at 10 g/ha,"[8]; Stellaria media, post-emergence, STEME, Compound A 10 g/ha, read-out: % visual injury Obs",70%
same,pest or weed control at 15 g/ha,"[8]; Stellaria media, post-emergence, STEME, Compound A 15 g/ha, read-out: % visual injury Obs",100%
same,"% visual injury, Obs","[9]; BRSNN, Compound A 10 g/ha",55%
same,% visual injury (Obs),"[9]; BRSNN, alone 10 g/ha",73% and 70%
same,BRSNN Obs (% visual injury),[9]; Compound A 10 g/ha,55% and 83% and 70%
same,BRSNN % visual injury Obs,[9]; Compound A 10 g/ha (Table 42),55%
same,BRSNN % visual injury Obs,[9]; Compound A 10 g/ha (Table 43),55%
same,BRSNN % visual injury Obs,[9]; Compound A 10 g/ha (Table 44),55%
same,GLXMA Obs (% visual injury),[10]; without safener,85%
same,"% visual injury, Obs",[10]; GLXMA,85%
same,HELAN Obs (% visual injury),[11]; without safener,100%
same,"% visual injury, Obs",[11]; HELAN,100%
same,SETFA Obs (% visual injury),[12],70%
same,SETFA Obs (% visual injury),[12]; without safener,0%
same,"% visual injury, Obs",[12]; SETFA,0%
same,ORYSA Obs (% visual injury),[13],10%
same,VIOTR Obs (% visual injury),[14]; Compound A 10 g/ha,18%
same,VIOTR Obs (% visual injury),[14]; [15],15%
same,% visual injury Obs,"[14]; VIOTR, Compound A 10 g/ha",30%
same,"% visual injury, Obs","[14]; VIOTR, Compound A 10 g/ha",15%
same,"visual injury, Obs","[14]; VIOTR, Compound A 10 g/ha alone",30%
same,"visual injury, Obs","[14]; VIOTR, Compound A 15 g/ha alone",50%
same,% visual injury (Obs),"[14]; VIOTR, alone, 10 g/ha",23%
same,% visual injury Obs,"[14]; VIOTR, alone, 10 g/ha",30%
same,% visual injury Obs,"[14]; VIOTR, alone, 15 g/ha",50%
same,"% visual injury, Obs","[14]; VIOTR, applied alone, 10 g/ha",30%
same,"% visual injury, Obs","[14]; VIOTR, applied alone, 15 g/ha",50%
same,pest or weed control at 10 g/ha,[14]; [16],30%
same,pest or weed control at 15 g/ha,[14]; [16],50%
